Test results: patent US8486962B2, “Antifungal agents” (F2G Ltd., priority 2005, dated 2013)
Converted amounts (≈) assume the structure as drawn. Like-named read-outs stand apart in the source and are kept apart here.

Columns and labels:
Format in all cases: cell-based
[1] = tested on: Aspergillus fumigatus AF293; test: MIC, YAG medium, Aspergillus fumigatus AF293; settings: YAG medium; for MIC: Aspergillus fumigatus, AF293, read-out: MIC A Fum. 293
Method: (§1) Measurement of Minimum Inhibitory Concentrations (MICs)
(§2) Between 1 and 5 mgs of compound were accurately weighed out into a sterile Eppendorf tube. The compound was dissolved in DMSO to give a solution containing 5 mg/ml. Tubes were stored at −20° C. until required.
(§3) On the day of testing thawed solutions were vortex mixed to ensure homogeneity. 30 μl of solution was removed and added to 570 μl of sterile water in a separate sterile Eppendorf. The thoroughly mixed solution was used to prepare a series of doubling dilutions in water, in a deep well plate. Eleven replicate plates were prepared using a Minitrak by aspirating 20 μl from each well into eleven clear polystyrene 96 well plates.
(§4) Spores of Aspergillus spp (Aspergillus fumigatus, Aspergillus terreus, Aspergillus niger and Aspergillus flavus) were harvested from cultures grown on Sabarauds agar for 5 days, and resuspended in PBS/Tween 80 to approx 1×10^7 cfu/ml Other filamentous fungi (Fusarium solani, Scedosporium spp., Trichophyton spp., Absidia corymbifera), were grown on Sabarauds agar for 2-10 days and spores/hyphae resuspended in PBS/Tween to give approx 1×10^7 cfU/ml. Candida species (Candida albicans, Candida glabrata, Candida krusei, Candida parapsilosis and Candida tropicalis) were grown on Sabarauds agar, cells were harvested from the agar using a sterile loop and resuspended in PBS/Tween 80 to approx 1×10^6 cfu/ml. Each organism suspension was diluted in RPMI medium, containing 2% glucose and 0.135M MOPS buffer (pH7.0) to 2×10^4 cfu/ml for Aspergillus spp and other filamentous fungi and 2×10^3 cfu/ml for yeast. 80 μl of an organism suspension was added to each well of the plate containing drug dilutions.
(§5) This produced MIC plates with a drug range 50-0.05 mg/L and organism inocula of 1-2×10^4 cfu/ml for Aspergillus spp and other filamentous fungi and 1-2×10^3 cfu/ml for yeasts. All plates were incubated for 24-48 hrs at 35° C. Growth was assessed by monitoring the optical density at 485 nm for each well. The MIC of a compound is the lowest drug concentration that inhibits growth of an organism by >80% compared with a drug free control. MICs are recorded as mg/L. Other growth media can be used for susceptibility testing, and the activity of the described compounds can also be assessed in a medium comprising, 1% glucose, 1% ammonium chloride and 0.5% yeast extract (YAG medium). To perform MIC tests in this medium, dilutions of compounds are prepared in microtitre plates as described above. Fungal strains to be tested are grown and harvested in an identical manner to that described above, each organism suspension is then diluted in YAG medium to 2×10^4 cfu/ml for Aspergillus spp and other filamentous fungi and 2×10^3 cfu/ml for yeast. 80 μl of an organism suspension was added to each well of the plate containing drug dilutions. This produced MIC plates with a drug range 50-0.05 mg/L and organism inocula of 1-2×10^4 cfu/ml for Aspergillus spp and other filamentous fungi and 1-2×10^3 cfu/ml for yeasts. All plates were incubated for 24 hrs at 35° C. Growth was assessed by monitoring the optical density at 485 nm for each well. The MIC of a compound is the lowest drug concentration that inhibits growth of an organism by >70% compared with a drug free control. MICs are recorded as mg/L. In cases where the MIC of an organism is […]0.05 mg/L the MIC is repeated using a concentration range of 0.5-0.0005 mg/L. MIC tests in YAG medium have more clear-cut endpoints and have slightly lower MICS than those performed in RPMI medium.
(§6) The following organisms were tested: Aspergillus fumigatus AF293 and Aspergillus fumigatus AF210, Aspergillus niger, Aspergillus terreus, Aspergillus favus, Candida albicans, Candida krusei, Candida tropicalis, Candida glabrata, Candida parapsilosis, Trichophyton rubrum, Trichophyton mentagrophytes, Scedosporium prolificans, Scedosporium apiospermum, Absidia corymbifera, Fusarium solani.

Aspergillus niger = test: MIC, YAG medium, Aspergillus niger; settings: YAG medium; for MIC: Aspergillus niger
Method: as §1, §2, §3, §4, §5, §6

Aspergillus terreus = test: MIC, YAG medium, Aspergillus terreus; settings: YAG medium; for MIC: Aspergillus terreus
Method: as §1, §2, §3, §4, §5, §6

Aspergillus flavus = test: MIC, YAG medium, Aspergillus flavus; settings: YAG medium; for MIC: Aspergillus flavus
Method: as §1, §2, §3, §4, §5, §6

[2] = tested on: Aspergillus fumigatus AF210; test: MIC, YAG medium, Aspergillus fumigatus AF210; settings: YAG medium; for MIC: Aspergillus fumigatus, AF210, read-out: MIC A Fum. 210
Method: as §1, §2, §3, §4, §5, §6

MIC [1] [µg/mL]	MIC (Aspergillus niger; read-out: MIC A Niger 1) [µg/mL]	MIC (Aspergillus terreus; read-out: MIC A Terreus 4) [µg/mL]	MIC (Aspergillus flavus; read-out: MIC A Flavus 01) [µg/mL]	MIC [2] [µg/mL]	MIC A Fum. 293 [1] [µg/mL]	MIC A Niger (Aspergillus niger) [µg/mL]	MIC A Terreus (Aspergillus terreus) [µg/mL]	MIC A Flavus (Aspergillus flavus) [µg/mL]	MIC A Fum. 210 [2] [µg/mL]	MIC (Aspergillus niger; read-out: MIC A Niger) [µg/mL]	MIC (Aspergillus terreus; read-out: MIC A Terreus) [µg/mL]	MIC (Aspergillus flavus; read-out: MIC A Flavus) [µg/mL]	SMILES
> 50	0.8 (≈ 2.01 µM)	> 50	3.1 (≈ 7.8 µM)	25 (≈ 62.9 µM)									CNC(=O)c1ccc(NC(=O)C(=O)c2c(-c3ccccc3)cc3ccccn23)cc1 [Example 153, N-Methyl-4-[2-oxo-2-(2-phenyl-indolizin-3-yl)-acetylamino]-benzamide]
> 50	> 50	0.2 (≈ 0.564 µM)	> 50	> 50									O=C(NCc1ccccc1)C(=O)c1c(-c2ccccc2)cc2ccccn12 [Example 182, N-Benzyl-2-oxo-2-(2-phenyl-indolizin-3-yl)-acetamide]
50 (≈ 117 µM)	> 50	12.5 (≈ 29.2 µM)	12.5 (≈ 29.2 µM)	> 50									CN(C)CCOc1cccc(NC(=O)C(=O)c2c(-c3ccccc3)cc3ccccn23)c1 [Example 240, N-[3-(2-Dimethylamino-ethoxy)-phenyl]-2-oxo-2-(2-phenyl-indolizin-3-yl)-acetamide]
3.1 (≈ 7.59 µM)	3.1 (≈ 7.59 µM)	0.1 (≈ 0.245 µM)	0.1 (≈ 0.245 µM)	3.1 (≈ 7.59 µM)									CC(C)(C#N)c1ccc(NC(=O)C(=O)c2c(-c3cccnc3)cc3ccccn23)cc1 [Example 225, N-[4-(Cyano-dimethyl-methyl)-phenyl]-2-oxo-2-(2-pyridin-3-yl-indolizin-3-yl)-acetamide]
> 50	3.1 (≈ 8.06 µM)	0.2 (≈ 0.52 µM)	0.1 (≈ 0.26 µM)	> 50									CN(C)c1ccc(NC(=O)C(=O)c2c(-c3cccnc3)cc3ccccn23)cc1 [Example 230, N-(4-Dimethylamino-phenyl)-2-oxo-2-(2-pyridin-3-yl-indolizin-3-yl)-acetamide]
					50 (≈ 111 µM)	50 (≈ 111 µM)	25 (≈ 55.5 µM)	50 (≈ 111 µM)	50 (≈ 111 µM)				Cc1c(NC(=O)C(=O)c2c(-c3ccccc3)cc3ccccn23)c(=O)n(-c2ccccc2)n1C [Example 303, N-(1,5-Dimethyl-3-oxo-2-phenyl-2,3-dihydro-1-pyrazol-4-yl)-2-oxo-2-(2-phenyl-indolizin-3-yl)-acetamide]
6.25 (≈ 15.6 µM)	1.6 (≈ 3.99 µM)	0.4 (≈ 0.996 µM)	0.4 (≈ 0.996 µM)	6.25 (≈ 15.6 µM)									COc1ccc2cc(-c3ccccc3)c(C(=O)C(=O)Nc3ccc(OC)nc3)n2c1 [Example 195, 2-(6-Methoxy-2-phenyl-indolizin-3-yl)-N-(6-methoxy-pyridin-3-yl)-2-oxo-acetamide]
> 50	1.6 (≈ 4.16 µM)	50 (≈ 130 µM)	> 50	> 50									O=C(Nc1ccc(C(=O)O)cc1)C(=O)c1c(-c2ccccc2)cc2ccccn12 [Example 159, 4-[2-Oxo-2-(2-phenyl-indolizin-3-yl)-acetylamino]-benzoic acid]
6.25 (≈ 15.2 µM)	0.2 (≈ 0.487 µM)	0.1 (≈ 0.244 µM)	0.05 (≈ 0.122 µM)	6.25 (≈ 15.2 µM)									O=C(Nc1ccc(Cl)cc1Cl)C(=O)c1c(-c2cccnc2)cc2ccccn12 [Example 224, N-(2,4-Dichloro-phenyl)-2-oxo-2-(2-pyridin-3-yl-indolizin-3-yl)-acetamide]
> 50	3.1 (≈ 7.72 µM)	> 50	> 50	> 50									COc1ccc(NC(=O)C(=O)c2c(-c3ccccn3)cc3ccccn23)c(OC)c1 [Example 176, N-(2,4-Dimethoxy-phenyl)-2-oxo-2-(2-pyridin-2-yl-indolizin-3-yl)-acetamide]
50 (≈ 136 µM)				25 (≈ 67.9 µM)						> 50	25 (≈ 67.9 µM)	> 50	CCN(C(=O)C(=O)c1c(-c2ccccc2)cc2ccccn12)c1ccccc1 [Example 302, N-Ethyl-2-oxo-N-phenyl-2-(2-phenyl-indolizin-3-yl)-acetamide]
1.6 (≈ 4.65 µM)	0.4 (≈ 1.16 µM)	1.6 (≈ 4.65 µM)	0.4 (≈ 1.16 µM)	3.1 (≈ 9 µM)									Cc1ccc(NC(=O)C(=O)c2c(-c3ccco3)cc3ccccn23)cc1 [Example 168, 2-(2-Furan-2-yl-indolizin-3-yl)-2-oxo-N-p-tolyl-acetamide]
6.25 (≈ 18.3 µM)	0.4 (≈ 1.17 µM)	0.4 (≈ 1.17 µM)	1.6 (≈ 4.69 µM)	6.25 (≈ 18.3 µM)									O=C(Nc1ccccn1)C(=O)c1c(-c2ccccc2)cc2ccccn12 [Example 151, 2-Oxo-2-(2-phenyl-indolizin-3-yl)-N-pyridin-2-yl-acetamide]
3.1 (≈ 8.04 µM)	0.8 (≈ 2.08 µM)	1.6 (≈ 4.15 µM)	3.1 (≈ 8.04 µM)	3.1 (≈ 8.04 µM)									COc1ccc(NC(=O)C(=O)c2c(-c3ccccc3)cc3cccc(C)n23)cn1 [Example 189, N-(6-Methoxy-pyridin-3-yl)-2-(5-methyl-2-phenyl-indolizin-3-yl)-2-oxo-acetamide]
12.5 (≈ 28.8 µM)	3.1 (≈ 7.15 µM)	6.25 (≈ 14.4 µM)	> 50	50 (≈ 115 µM)									CS(=O)(=O)Nc1ccc(NC(=O)C(=O)c2c(-c3ccccc3)cc3ccccn23)cc1 [Example 219, N-(4-Methanesulfonylamino-phenyl)-2-oxo-2-(2-phenyl-indolizin-3-yl)-acetamide]
> 50	6.25 (≈ 16.3 µM)	> 50	> 50	> 50									NC(=O)c1ccc(NC(=O)C(=O)c2c(-c3ccccc3)cc3ccccn23)cc1 [Example 161, 4-[2-Oxo-2-(2-phenyl-indolizin-3-yl)-acetylamino]-benzamide]
3.1 (≈ 8.25 µM)	0.8 (≈ 2.13 µM)	0.2 (≈ 0.532 µM)	0.4 (≈ 1.06 µM)	3.1 (≈ 8.25 µM)									O=C(Nc1ccc(Cl)cc1)C(=O)c1c(-c2cccnc2)cc2ccccn12 [Example 197, N-(4-Chloro-phenyl)-2-oxo-2-(2-pyridin-3-yl-indolizin-3-yl)-acetamide]
6.25 (≈ 17.6 µM)	1.6 (≈ 4.5 µM)	0.8 (≈ 2.25 µM)	0.4 (≈ 1.13 µM)	6.25 (≈ 17.6 µM)									Cc1ccccc1NC(=O)C(=O)c1c(-c2cccnc2)cc2ccccn12 [Example 213, 2-Oxo-2-(2-pyridin-3-yl-indolizin-3-yl)-N-o-tolyl-acetamide]
0.8 (≈ 2.25 µM)	0.4 (≈ 1.13 µM)	0.05 (≈ 0.141 µM)	0.05 (≈ 0.141 µM)	0.4 (≈ 1.13 µM)									Cc1cccc(NC(=O)C(=O)c2c(-c3cccnc3)cc3ccccn23)c1 [Example 215, 2-Oxo-2-(2-pyridin-3-yl-indolizin-3-yl)-N-m-tolyl-acetamide]
50 (≈ 144 µM)				25 (≈ 72.2 µM)						25 (≈ 72.2 µM)	12.5 (≈ 36.1 µM)	50 (≈ 144 µM)	O=C(C(=O)N1CCCCCC1)c1c(-c2ccccc2)cc2ccccn12 [Example 301, 1-Azepan-1-yl-2-(2-phenyl-indolizin-3-yl)-ethane-1,2-dione]
12.5 (≈ 36.6 µM)	0.4 (≈ 1.17 µM)	0.8 (≈ 2.34 µM)	1.6 (≈ 4.69 µM)	25 (≈ 73.2 µM)									O=C(Nc1cccnc1)C(=O)c1c(-c2ccccc2)cc2ccccn12 [Example 152, 2-Oxo-2-(2-phenyl-indolizin-3-yl)-N-pyridin-3-yl-acetamide]
> 50	> 50	12.5 (≈ 42.8 µM)	> 50	25 (≈ 85.5 µM)									CN(C)C(=O)C(=O)c1c(-c2ccccc2)cc2ccccn12 [Example 183, N,N-Dimethyl-2-oxo-2-(2-phenyl-indolizin-3-yl)-acetamide]
